This experiment has as its system bacterial pool: Burkholderia cepacia, Pseudomonas aeruginosa, Psuedomonas putida, Acinetobacter lwoffii. Description: Modified preservative challenge test (Ph. Eur. 5.1.3) in laundry liquid, Total Viable Count pour plate. The format is cell-based. Conditions: for Preservation of a laundry liquid composition (result in words): summary of the challenge test data set. On the procedure:
A modified challenge that complies with the current European Pharmacopoeia (Ph. Eur. Or EP) 5.1.3 criteria was performed on a subsample of both the unpreserved and each dosed product. The bacterial pool was added to each sample container at a ratio of 1:100. The final concentration of inoculum in the product should be between 5×10^5 and 5×10^6 CFU/G of test product. Each product is mixed with a sterile spatula to ensure a homogenous distribution of the inocula throughout the product. [table] Both the inoculum level and the level of microorganism within each sample was quantified using a Total Viable Count (TVC) pour plate method at 7, 14, 21 and 28 days. A 1:10 dilution was made with a subsample of each product, performed separately in Peptone (0.1%)/tween 80 (2%) neutralising agent. A 1:10 and 1:100 dilution of each subsample was performed and pour plates produced at each dilution using tryptone soya agar. Plates were incubated at 28° C. for 48 hours and then examined for growth. Visible colonies were counted with the aid of a Quebec Colony Counter and recorded for analysis against the challenge test criteria. During the removal of a subsample of product for TVC, a re-inoculation is performed at 7 and 14 days, reintroducing 5×10^6 CFU/G of bacteria before mixing using a sterile spatula to homogenise the re-inoculation.

Setting [1] is: 0.5% in Example 1 laundry liquid, 7 days.
Setting [2] is: 0.5% in Example 1 laundry liquid, 14 days, re-inoculated at 7 days.
Setting [3] is: 0.5% in Example 1 laundry liquid, 21 days, re-inoculated at 7 and 14 days.
Where [4] appears, read: 0.5% in Example 1 laundry liquid, 28 days, re-inoculated at 7 and 14 days.
Setting [5] is: 1.0% in Example 1 laundry liquid, 7 days.
[6] abbreviates: 1.0% in Example 1 laundry liquid, 14 days, re-inoculated at 7 days.
The mark [7] stands for this setting: 1.0% in Example 1 laundry liquid, 21 days, re-inoculated at 7 and 14 days.
Setting [8] is: 1.0% in Example 1 laundry liquid, 28 days, re-inoculated at 7 and 14 days.

The results in this text go back to patent publication US20210348086A1, “COMPOSITION” (Conopco Inc., d/b/a UNILEVER, priority 2018, published 2021).

A value given as a limit tells only on which side of the number the result lay.

As for `O=C(O)CC(O)(CC(=O)O)C(=O)O` [Citric acid], the “Preservation of a laundry liquid composition (result in words)” value (shortened to “Preservation”) is listed as “not capable of effectively preserving a laundry liquid composition”. For the same compound, the “Microbial Log reduction” value under setting [1] is reported as >5.59. For the same compound, the “Microbial Log reduction” value under setting [2] is reported as <2.54. Moreover, the “Microbial Log reduction” value under setting [3] is given as <2.56. Besides, under setting [4], the “Microbial Log reduction” value is reported as <2.56. For the same compound, the “Microbial Log reduction” value under setting [5] is >5.59. Moreover, the “Microbial Log reduction” value under setting [6] is reported as >5.54. For the same compound, under setting [7], the “Microbial Log reduction” value is >5.56. The “Microbial Log reduction” value under setting [8] is reported as >5.56.

Regarding `C=C(CC(=O)O)C(=O)O` [Itaconic acid], the “Preservation” value is listed as “effective preservative”. Moreover, under setting [1], the “Microbial Log reduction” value was >5.59. In addition, under setting [2], the “Microbial Log reduction” value is recorded as >5.54. In addition, the “Microbial Log reduction” value under setting [3] is given as >5.56. For the same compound, the “Microbial Log reduction” value under setting [4] is recorded as >5.56. For the same compound, under setting [5], the “Microbial Log reduction” value was >5.59. Moreover, the “Microbial Log reduction” value under setting [6] is given as >5.54. For the same compound, the “Microbial Log reduction” value under setting [7] is listed as >5.56. The “Microbial Log reduction” value under setting [8] is listed as >5.56.

As to `CC(O)C(=O)O` (stereo not drawn) [Lactic acid], the “Preservation” value is “not capable of effectively preserving a laundry liquid composition”. The “Microbial Log reduction” value under setting [1] is recorded as >5.59. In addition, the “Microbial Log reduction” value under setting [2] worked out at 2.32. Also, under setting [3], the “Microbial Log reduction” value is reported as <2.56. Also, the “Microbial Log reduction” value under setting [4] is <2.56. The “Microbial Log reduction” value under setting [5] was >5.59. In addition, under setting [6], the “Microbial Log reduction” value is reported as >5.54. The “Microbial Log reduction” value under setting [7] is >5.56. The “Microbial Log reduction” value under setting [8] is listed as >5.56.
